Values quoted from earlier work as cited in patent EP0023178A1, “Process for the preparation of concentrated solutions of amygdaline in its natural form” (SOMET, Société dite, priority 1979, dated 1981).

Details: water

## N#CC(OC1OC(COC2OC(CO)C(O)C(O)C2O)C(O)C(O)C1O)c1ccccc1 (stereo not drawn) [amygdaline, D ou R mandélonitrile β-gentiobioside trihydraté]
  solubilité dans l'eau: 8-8,5%
